{"source": "paper PMC6812009", "about": "“Covalent Aurora A regulation by the metabolic integrator coenzyme A” (Redox Biology, 2019)", "test_in_all_cases": "Kinase profiling screen (radioactive filter-binding assay)", "format_in_all_cases": "biochemical", "key": {"[1]": {"molecular_target": "MARK1 (Homo sapiens, UniProt Q9P0L2)", "details": "100 μM compound, 20 μM ATP; read-out: Kinase activity, % of activity in the absence of inhibitor", "method_in_brief": "(§1)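 Panel of 117 recombinant kinases; CoA, dpCoA, ADP each at 100 μM final, duplicates; model substrates, ATP at optimal level.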"}, "[2]": {"molecular_target": "T1, BRSK2 (Homo sapiens, UniProt Q8IWQ3)", "T1 sequence (Q8IWQ3 1-736)": "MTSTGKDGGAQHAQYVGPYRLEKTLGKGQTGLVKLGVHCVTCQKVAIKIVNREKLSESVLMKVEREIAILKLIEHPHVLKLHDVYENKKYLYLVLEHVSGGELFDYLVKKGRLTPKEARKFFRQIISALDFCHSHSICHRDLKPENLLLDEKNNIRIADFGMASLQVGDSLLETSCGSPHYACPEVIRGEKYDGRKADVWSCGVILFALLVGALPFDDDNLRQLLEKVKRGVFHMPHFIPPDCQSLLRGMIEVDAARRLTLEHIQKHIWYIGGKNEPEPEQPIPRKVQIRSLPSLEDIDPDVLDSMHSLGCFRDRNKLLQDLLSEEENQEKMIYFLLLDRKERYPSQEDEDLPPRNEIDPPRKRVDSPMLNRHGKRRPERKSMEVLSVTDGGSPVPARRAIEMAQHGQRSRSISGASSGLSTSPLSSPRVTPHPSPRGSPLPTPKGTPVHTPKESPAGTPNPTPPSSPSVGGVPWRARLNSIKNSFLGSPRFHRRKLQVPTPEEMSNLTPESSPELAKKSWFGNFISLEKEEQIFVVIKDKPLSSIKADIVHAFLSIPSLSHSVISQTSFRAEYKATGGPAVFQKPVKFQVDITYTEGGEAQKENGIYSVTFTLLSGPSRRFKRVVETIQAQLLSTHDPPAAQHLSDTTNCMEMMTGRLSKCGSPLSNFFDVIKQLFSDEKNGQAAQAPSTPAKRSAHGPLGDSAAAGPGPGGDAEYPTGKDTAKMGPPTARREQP", "details": "100 μM compound, 50 μM ATP; read-out: Kinase activity, % of activity in the absence of inhibitor", "method_in_brief": "as §1"}, "[3]": {"molecular_target": "FGF-R1 (Homo sapiens, UniProt P11362)", "sequence (P11362 22-822)": "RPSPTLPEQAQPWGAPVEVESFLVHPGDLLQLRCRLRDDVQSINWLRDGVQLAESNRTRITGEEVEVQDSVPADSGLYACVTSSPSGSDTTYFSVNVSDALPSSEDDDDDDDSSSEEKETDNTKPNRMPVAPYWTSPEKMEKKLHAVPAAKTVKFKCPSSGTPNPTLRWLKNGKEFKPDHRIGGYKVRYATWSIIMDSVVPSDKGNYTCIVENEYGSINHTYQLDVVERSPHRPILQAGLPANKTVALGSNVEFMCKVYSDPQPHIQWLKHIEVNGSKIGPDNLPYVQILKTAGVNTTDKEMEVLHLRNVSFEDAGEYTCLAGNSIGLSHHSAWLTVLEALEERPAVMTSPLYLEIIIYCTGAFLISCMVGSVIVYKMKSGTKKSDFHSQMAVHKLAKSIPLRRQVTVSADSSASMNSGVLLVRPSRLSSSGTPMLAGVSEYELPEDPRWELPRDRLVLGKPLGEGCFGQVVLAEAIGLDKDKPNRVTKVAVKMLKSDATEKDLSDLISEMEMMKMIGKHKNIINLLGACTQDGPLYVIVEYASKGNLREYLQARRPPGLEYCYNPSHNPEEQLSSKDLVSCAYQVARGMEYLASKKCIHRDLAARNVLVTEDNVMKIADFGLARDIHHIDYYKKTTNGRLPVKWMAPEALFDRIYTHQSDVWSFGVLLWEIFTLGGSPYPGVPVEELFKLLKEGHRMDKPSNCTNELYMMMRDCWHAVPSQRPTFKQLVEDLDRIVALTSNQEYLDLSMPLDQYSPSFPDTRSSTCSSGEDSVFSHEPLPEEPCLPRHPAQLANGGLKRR", "details": "for activity at 100 µM: 100 μM compound, 20 μM ATP, read-out: Kinase activity, % of activity in the absence of inhibitor", "method_in_brief": "as §1"}, "[4]": {"molecular_target": "JNK2 (Homo sapiens, UniProt P45984)", "sequence (P45984 whole entry)": "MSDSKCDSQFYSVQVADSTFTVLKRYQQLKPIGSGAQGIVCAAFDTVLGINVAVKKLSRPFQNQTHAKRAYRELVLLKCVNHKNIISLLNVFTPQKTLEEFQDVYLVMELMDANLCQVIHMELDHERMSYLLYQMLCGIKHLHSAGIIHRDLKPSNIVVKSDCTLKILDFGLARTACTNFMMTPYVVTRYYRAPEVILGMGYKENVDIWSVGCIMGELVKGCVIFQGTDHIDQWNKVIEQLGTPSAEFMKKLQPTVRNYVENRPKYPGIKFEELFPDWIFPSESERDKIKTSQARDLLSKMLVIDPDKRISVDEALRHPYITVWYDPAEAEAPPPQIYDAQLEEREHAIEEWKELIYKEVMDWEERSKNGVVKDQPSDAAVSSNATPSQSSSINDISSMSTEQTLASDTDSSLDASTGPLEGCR", "details": "100 μM compound, 20 μM ATP; read-out: Kinase activity, % of activity in the absence of inhibitor", "method_in_brief": "as §1"}, "[5]": {"molecular_target": "p38β MAPK (Homo sapiens, UniProt Q15759)", "sequence (Q15759 whole entry)": "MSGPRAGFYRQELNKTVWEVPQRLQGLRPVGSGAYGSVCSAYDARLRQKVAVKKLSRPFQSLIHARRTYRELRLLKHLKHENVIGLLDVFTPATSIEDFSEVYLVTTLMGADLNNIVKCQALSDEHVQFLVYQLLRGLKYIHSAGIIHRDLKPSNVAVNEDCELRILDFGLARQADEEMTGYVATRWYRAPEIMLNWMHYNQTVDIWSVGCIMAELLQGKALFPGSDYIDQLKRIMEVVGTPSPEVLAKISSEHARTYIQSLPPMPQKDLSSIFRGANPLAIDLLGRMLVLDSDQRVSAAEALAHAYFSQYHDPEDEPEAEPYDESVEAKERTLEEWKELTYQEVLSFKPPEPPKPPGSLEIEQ", "details": "100 μM compound, 20 μM ATP; read-out: Kinase activity, % of activity in the absence of inhibitor", "method_in_brief": "as §1"}, "[6]": {"molecular_target": "RSK2 (Homo sapiens, UniProt P51812)", "details": "100 μM compound, 50 μM ATP; read-out: Kinase activity, % of activity in the absence of inhibitor", "method_in_brief": "as §1"}, "[7]": {"molecular_target": "MINK1 (Homo sapiens, UniProt Q8N4C8)", "sequence (Q8N4C8 whole entry)": "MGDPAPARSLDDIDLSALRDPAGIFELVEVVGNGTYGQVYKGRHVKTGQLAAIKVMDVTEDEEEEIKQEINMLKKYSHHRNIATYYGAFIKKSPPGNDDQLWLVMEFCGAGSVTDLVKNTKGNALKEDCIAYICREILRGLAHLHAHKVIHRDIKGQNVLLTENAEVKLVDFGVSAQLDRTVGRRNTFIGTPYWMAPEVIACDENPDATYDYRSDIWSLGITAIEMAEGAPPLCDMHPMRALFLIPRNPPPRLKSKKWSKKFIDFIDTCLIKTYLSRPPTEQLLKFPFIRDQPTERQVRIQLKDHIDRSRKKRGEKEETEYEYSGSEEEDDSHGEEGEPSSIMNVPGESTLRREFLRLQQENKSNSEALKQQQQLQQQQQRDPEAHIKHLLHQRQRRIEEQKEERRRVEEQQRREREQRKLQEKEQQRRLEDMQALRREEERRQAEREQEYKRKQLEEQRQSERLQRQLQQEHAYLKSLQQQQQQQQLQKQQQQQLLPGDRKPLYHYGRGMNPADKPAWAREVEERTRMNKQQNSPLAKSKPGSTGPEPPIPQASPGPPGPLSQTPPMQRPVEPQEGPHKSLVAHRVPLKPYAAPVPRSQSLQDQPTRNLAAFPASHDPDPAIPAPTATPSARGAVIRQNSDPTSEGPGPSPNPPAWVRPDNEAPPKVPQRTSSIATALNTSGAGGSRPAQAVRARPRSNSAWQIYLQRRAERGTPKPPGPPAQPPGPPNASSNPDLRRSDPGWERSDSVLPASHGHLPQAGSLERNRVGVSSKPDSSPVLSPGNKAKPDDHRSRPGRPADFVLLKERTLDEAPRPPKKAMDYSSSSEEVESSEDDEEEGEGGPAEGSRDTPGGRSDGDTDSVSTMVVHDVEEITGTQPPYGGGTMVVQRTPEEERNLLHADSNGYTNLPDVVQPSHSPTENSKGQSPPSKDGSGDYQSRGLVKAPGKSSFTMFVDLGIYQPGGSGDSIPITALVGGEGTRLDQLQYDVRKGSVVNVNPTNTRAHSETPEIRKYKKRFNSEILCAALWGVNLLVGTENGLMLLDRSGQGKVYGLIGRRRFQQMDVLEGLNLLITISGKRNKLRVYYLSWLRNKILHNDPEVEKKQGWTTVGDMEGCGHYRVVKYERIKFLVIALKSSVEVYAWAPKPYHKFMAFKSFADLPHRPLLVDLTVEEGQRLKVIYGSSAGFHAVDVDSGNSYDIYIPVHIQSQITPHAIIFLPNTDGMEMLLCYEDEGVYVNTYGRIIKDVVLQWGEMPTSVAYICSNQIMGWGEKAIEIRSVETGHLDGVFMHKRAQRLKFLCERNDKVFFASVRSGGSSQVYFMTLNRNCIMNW", "details": "100 μM compound, 50 μM ATP; read-out: Kinase activity, % of activity in the absence of inhibitor", "method_in_brief": "as §1"}, "[8]": {"molecular_target": "T2, Aurora A (Homo sapiens, UniProt O14965)", "T2 sequence (O14965 1-403)": "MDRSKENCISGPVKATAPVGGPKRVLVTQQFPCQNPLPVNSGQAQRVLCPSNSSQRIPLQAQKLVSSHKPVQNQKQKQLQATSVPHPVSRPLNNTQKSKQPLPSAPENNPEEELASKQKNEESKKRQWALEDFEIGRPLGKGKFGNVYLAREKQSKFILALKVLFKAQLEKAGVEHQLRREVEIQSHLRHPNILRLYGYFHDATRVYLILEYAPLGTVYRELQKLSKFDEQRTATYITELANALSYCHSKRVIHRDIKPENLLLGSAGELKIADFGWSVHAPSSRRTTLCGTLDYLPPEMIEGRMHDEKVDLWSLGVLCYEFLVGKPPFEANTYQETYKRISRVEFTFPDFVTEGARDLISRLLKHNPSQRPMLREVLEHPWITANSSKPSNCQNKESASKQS", "details": "for activity at 100 µM: 100 μM compound, 5 μM ATP, read-out: Kinase activity, % of activity in the absence of inhibitor", "method_in_brief": "as §1"}, "[9]": {"molecular_target": "PHKγ1 (Homo sapiens, UniProt Q16816)", "sequence (Q16816 whole entry)": "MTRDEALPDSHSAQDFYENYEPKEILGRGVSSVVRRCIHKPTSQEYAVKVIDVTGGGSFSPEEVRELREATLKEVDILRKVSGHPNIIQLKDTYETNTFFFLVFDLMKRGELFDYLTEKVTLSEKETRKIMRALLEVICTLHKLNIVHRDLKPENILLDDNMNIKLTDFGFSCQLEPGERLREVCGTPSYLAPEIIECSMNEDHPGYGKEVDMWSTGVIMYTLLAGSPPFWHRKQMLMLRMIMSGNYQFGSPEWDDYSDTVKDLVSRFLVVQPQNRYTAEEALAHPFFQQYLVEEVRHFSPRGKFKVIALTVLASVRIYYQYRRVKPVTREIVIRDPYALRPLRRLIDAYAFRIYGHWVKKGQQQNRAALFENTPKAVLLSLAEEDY", "details": "100 μM compound, 50 μM ATP; read-out: Kinase activity, % of activity in the absence of inhibitor", "method_in_brief": "as §1"}, "[10]": {"molecular_target": "PIM1 (Homo sapiens, UniProt P11309)", "sequence (P11309 whole entry)": "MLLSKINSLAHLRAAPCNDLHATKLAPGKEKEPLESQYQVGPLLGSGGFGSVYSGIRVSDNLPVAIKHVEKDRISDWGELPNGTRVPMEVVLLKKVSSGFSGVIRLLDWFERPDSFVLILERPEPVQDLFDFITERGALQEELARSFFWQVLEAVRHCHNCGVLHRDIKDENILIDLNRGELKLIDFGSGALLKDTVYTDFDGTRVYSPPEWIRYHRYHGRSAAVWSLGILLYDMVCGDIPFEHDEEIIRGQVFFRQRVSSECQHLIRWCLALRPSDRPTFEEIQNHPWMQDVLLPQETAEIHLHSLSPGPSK", "details": "100 μM compound, 20 μM ATP; read-out: Kinase activity, % of activity in the absence of inhibitor", "method_in_brief": "as §1"}, "[11]": {"molecular_target": "T3, PDK1 (Homo sapiens, UniProt O15530)", "T3 sequence (O15530 1-556)": "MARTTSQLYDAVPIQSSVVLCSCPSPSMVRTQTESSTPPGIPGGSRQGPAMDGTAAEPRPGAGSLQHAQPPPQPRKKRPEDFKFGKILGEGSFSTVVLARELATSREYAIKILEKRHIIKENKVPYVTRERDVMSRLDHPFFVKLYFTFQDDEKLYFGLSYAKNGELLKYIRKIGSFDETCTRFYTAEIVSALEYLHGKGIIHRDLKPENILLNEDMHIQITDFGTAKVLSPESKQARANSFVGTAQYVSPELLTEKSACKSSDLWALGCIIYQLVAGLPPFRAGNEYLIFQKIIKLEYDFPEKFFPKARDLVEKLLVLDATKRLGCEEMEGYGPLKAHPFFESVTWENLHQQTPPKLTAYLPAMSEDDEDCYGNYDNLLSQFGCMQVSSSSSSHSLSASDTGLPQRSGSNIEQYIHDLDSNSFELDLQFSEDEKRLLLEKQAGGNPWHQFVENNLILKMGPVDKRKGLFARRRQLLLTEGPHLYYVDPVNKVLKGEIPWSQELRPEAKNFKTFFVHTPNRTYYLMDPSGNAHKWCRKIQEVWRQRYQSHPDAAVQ", "details": "100 μM compound, 20 μM ATP; read-out: Kinase activity, % of activity in the absence of inhibitor", "method_in_brief": "as §1"}, "[12]": {"molecular_target": "NEK6 (Homo sapiens, UniProt Q9HC98)", "sequence (Q9HC98 whole entry)": "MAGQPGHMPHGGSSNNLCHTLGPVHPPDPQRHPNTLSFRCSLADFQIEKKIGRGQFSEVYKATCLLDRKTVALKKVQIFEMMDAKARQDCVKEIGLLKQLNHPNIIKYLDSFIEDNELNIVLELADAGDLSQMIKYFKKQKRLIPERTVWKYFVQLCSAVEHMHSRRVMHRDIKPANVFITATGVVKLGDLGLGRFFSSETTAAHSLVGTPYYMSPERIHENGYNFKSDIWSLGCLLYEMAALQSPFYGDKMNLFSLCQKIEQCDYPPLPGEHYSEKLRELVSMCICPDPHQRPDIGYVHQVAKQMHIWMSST", "details": "100 μM compound, 50 μM ATP; read-out: Kinase activity, % of activity in the absence of inhibitor", "method_in_brief": "as §1"}, "[13]": {"molecular_target": "SYK (Homo sapiens, UniProt P43405)", "details": "100 μM compound, 20 μM ATP; read-out: Kinase activity, % of activity in the absence of inhibitor", "method_in_brief": "as §1"}, "[14]": {"molecular_target": "EPH-A4 (Homo sapiens, UniProt P54764)", "sequence (P54764 20-986)": "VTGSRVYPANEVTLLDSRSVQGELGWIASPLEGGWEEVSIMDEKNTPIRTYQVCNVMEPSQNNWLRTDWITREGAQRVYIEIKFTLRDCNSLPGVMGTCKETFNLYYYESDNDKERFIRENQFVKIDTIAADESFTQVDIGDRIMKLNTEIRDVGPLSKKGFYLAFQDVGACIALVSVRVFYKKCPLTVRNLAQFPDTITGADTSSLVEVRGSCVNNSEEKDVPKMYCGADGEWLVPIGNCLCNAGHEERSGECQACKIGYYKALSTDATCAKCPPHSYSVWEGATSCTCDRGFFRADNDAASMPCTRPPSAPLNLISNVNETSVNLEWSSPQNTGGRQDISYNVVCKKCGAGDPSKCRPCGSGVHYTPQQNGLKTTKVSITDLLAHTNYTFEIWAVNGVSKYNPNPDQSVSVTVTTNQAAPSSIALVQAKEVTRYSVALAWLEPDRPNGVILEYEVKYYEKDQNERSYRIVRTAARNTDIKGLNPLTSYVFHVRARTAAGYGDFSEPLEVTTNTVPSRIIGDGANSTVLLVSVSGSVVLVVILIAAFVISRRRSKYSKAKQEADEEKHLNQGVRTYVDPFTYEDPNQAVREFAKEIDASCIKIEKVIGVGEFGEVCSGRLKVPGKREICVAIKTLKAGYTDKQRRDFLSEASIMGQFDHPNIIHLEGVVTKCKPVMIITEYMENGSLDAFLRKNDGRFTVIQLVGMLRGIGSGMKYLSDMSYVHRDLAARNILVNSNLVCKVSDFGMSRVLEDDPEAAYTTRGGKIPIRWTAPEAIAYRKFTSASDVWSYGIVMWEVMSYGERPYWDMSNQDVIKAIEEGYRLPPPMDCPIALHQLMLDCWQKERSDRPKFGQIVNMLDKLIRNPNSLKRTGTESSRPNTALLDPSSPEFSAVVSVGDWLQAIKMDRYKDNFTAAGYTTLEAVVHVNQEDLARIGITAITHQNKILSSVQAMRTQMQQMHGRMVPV", "details": "100 μM compound, 50 μM ATP; read-out: Kinase activity, % of activity in the absence of inhibitor", "method_in_brief": "as §1"}}, "data": [{"smiles": "Nc1ncnc2c1ncn2C1OC(COP(=O)(O)OP(=O)(O)O)C(O)C1O", "note": "(centres unmarked) [ADP]", "values": [{"measurement": "activity at 100 µM", "setting": "[1]", "result": 28.1, "unit": "%"}, {"measurement": "activity at 100 µM", "setting": "[2]", "result": 52.4, "unit": "%"}, {"measurement": "activity at 100 µM", "setting": "[3]", "result": 41.7, "unit": "%"}, {"measurement": "activity at 100 µM", "setting": "[4]", "result": 57.3, "unit": "%"}, {"measurement": "activity at 100 µM", "setting": "[5]", "result": 51.1, "unit": "%"}, {"measurement": "activity at 100 µM", "setting": "[6]", "result": 47.9, "unit": "%"}, {"measurement": "activity at 100 µM", "setting": "[7]", "result": 49.4, "unit": "%"}, {"measurement": "activity at 100 µM", "setting": "[8]", "result": 38, "unit": "%"}, {"measurement": "activity at 100 µM", "setting": "[9]", "result": 75.6, "unit": "%"}, {"measurement": "activity at 100 µM", "setting": "[10]", "result": 46.1, "unit": "%"}, {"measurement": "activity at 100 µM", "setting": "[11]", "result": 23.3, "unit": "%"}, {"measurement": "activity at 100 µM", "setting": "[12]", "result": 26.6, "unit": "%"}, {"measurement": "activity at 100 µM", "setting": "[13]", "result": 70.9, "unit": "%"}, {"measurement": "activity at 100 µM", "setting": "[14]", "result": 32.5, "unit": "%"}]}, {"smiles": "CC(C)(COP(=O)(O)OP(=O)(O)OC[C@H]1O[C@@H](n2cnc3c(N)ncnc32)[C@H](O)[C@@H]1OP(=O)(O)O)[C@@H](O)C(=O)NCCC(=O)NCCS", "note": "[CoA, Coenzyme A]", "values": [{"measurement": "activity at 100 µM", "setting": "[1]", "result": 95.3, "unit": "%"}, {"measurement": "activity at 100 µM", "setting": "[2]", "result": 115, "unit": "%"}, {"measurement": "activity at 100 µM", "setting": "[3]", "result": 60, "unit": "%"}, {"measurement": "FGFR1 inhibition (in words)", "setting": "[3]; kinase profiling, 100 μM", "result": "modestly inhibited"}, {"measurement": "activity at 100 µM", "setting": "[4]", "result": 93.9, "unit": "%"}, {"measurement": "activity at 100 µM", "setting": "[5]", "result": 160, "unit": "%"}, {"measurement": "activity at 100 µM", "setting": "[6]", "result": 96.5, "unit": "%"}, {"measurement": "activity at 100 µM", "setting": "[7]", "result": 106, "unit": "%"}, {"measurement": "activity at 100 µM", "setting": "[8]", "result": 13.4, "unit": "%"}, {"measurement": "inhibition at 100 µM", "setting": "[8]; at 100 μM, n = 3", "result": 87, "unit": "%"}, {"measurement": "activity at 100 µM", "setting": "[9]", "result": 105, "unit": "%"}, {"measurement": "activity at 100 µM", "setting": "[10]", "result": 103, "unit": "%"}, {"measurement": "activity at 100 µM", "setting": "[11]", "result": 113, "unit": "%"}, {"measurement": "activity at 100 µM", "setting": "[12]", "result": 118, "unit": "%"}, {"measurement": "activity at 100 µM", "setting": "[13]", "result": 98.3, "unit": "%"}, {"measurement": "activity at 100 µM", "setting": "[14]", "result": 115, "unit": "%"}]}, {"smiles": "CC(C)(COP(=O)(O)OP(=O)(O)OCC1OC(n2cnc3c(N)ncnc32)C(O)C1O)C(O)C(=O)NCCC(=O)NCCS", "note": "(centres unmarked) [dpCoA, dephospho-CoA]", "values": [{"measurement": "activity at 100 µM", "setting": "[1]", "result": 68, "unit": "%"}, {"measurement": "activity at 100 µM", "setting": "[2]", "result": 88.8, "unit": "%"}, {"measurement": "activity at 100 µM", "setting": "[3]", "result": 31.4, "unit": "%"}, {"measurement": "activity at 100 µM", "setting": "[4]", "result": 76.1, "unit": "%"}, {"measurement": "activity at 100 µM", "setting": "[5]", "result": 94.5, "unit": "%"}, {"measurement": "activity at 100 µM", "setting": "[6]", "result": 62.9, "unit": "%"}, {"measurement": "activity at 100 µM", "setting": "[7]", "result": 104, "unit": "%"}, {"measurement": "activity at 100 µM", "setting": "[8]", "result": 29.9, "unit": "%"}, {"measurement": "activity at 100 µM", "setting": "[9]", "result": 90.9, "unit": "%"}, {"measurement": "activity at 100 µM", "setting": "[10]", "result": 97.7, "unit": "%"}, {"measurement": "activity at 100 µM", "setting": "[11]", "result": 91.2, "unit": "%"}, {"measurement": "activity at 100 µM", "setting": "[12]", "result": 69.6, "unit": "%"}, {"measurement": "activity at 100 µM", "setting": "[13]", "result": 106, "unit": "%"}, {"measurement": "activity at 100 µM", "setting": "[14]", "result": 75.6, "unit": "%"}]}]}
